How the values were obtained:
Type in all cases: binding
[1] = molecular target: T1, human galectin-9C (C-terminal domain) (Homo sapiens, UniProt O00182); assay: competitive fluorescence polarization assay, galectin-9C; conditions: PBS
T1 construct: 4N (N-terminal domain) 4C (C-terminal domain), 7, 8N, 8C, 9N, and 9C; made in house
Excerpt: (§1) Human galectin-1 [25], galectin-2 [26], galectin-3 [27], galectin-4N [19], galectin-4C [19], galectin-8N [28], galectin-8C [28], galectin-9N [29], and galectin-9C [30], were expressed and purified as described earlier. Human galectin-7 was expressed using a pET3c plasmid in E. coli BL21-star. The plasmid containing expression optimized DNA encoding the full human galectin-7 sequence (NCBI Reference Sequence: NP_002298.1) was obtained from GenScript (Piscataway, NJ, USA). […] Lactose was removed by chromatography on a PD-10 column (Amersham Biosciences) with repeated ultrafiltration with Centriprep (Amicon).
(§2) Fluorescence polarization experiments were carried out either with a POLARStar plate reader and FLUOstar Galaxy software or with a PheraStarFS plate reader and PHERAstar Mars version 2.10 R3 software (BMG, Offenburg, Germany). The dissociation constant (Kd) values were determined in PBS as described earlier. Specific conditions for galectin-1, 2, 3, 4N, 4C, 8N, 8C, 9N, and 9C were kept as reported. Experiments were performed at room temperature with human galectin-7 at 5 µM and the fluorescent probe β-D-galactopyranosyl-(1–4)-2-acetamido-2-deoxy-β-d-glucopyranosyl-(1–3)-β-d-galactopyranosyl-(1–4)-(N1-fluorescein-5-yl-carbonylaminomethylcarbonyl)-β-D-glucopyranosylamine at 0.02 µM. All the compounds in Table 1 except 32 were dissolved in a neat DMSO at 100 mM and diluted in PBS to three to six different concentrations to be tested in duplicate.

[2] = molecular target: T2, human galectin-8C (C-terminal domain) (Homo sapiens, UniProt O00214); assay: competitive fluorescence polarization assay, galectin-8C; conditions: PBS
T2 construct: 4N (N-terminal domain) 4C (C-terminal domain), 7, 8N, 8C, 9N, and 9C; made in house
T2 sequence (O00214 187-317 limits assumed): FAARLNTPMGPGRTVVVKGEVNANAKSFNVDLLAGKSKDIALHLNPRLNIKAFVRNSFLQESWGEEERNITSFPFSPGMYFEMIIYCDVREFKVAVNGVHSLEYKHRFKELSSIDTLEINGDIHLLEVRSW
Excerpt: as §1, §2

[3] = molecular target: T3, human galectin-3 (Homo sapiens, UniProt P17931); assay: competitive fluorescence polarization assay, galectin-3; conditions: average and SEM, PBS
T3 construct: made in house; host or cells: vector pET3c (the same vector as galectin-7)
Excerpt: as §1, §2

[4] = molecular target: T4, human galectin-4N (N-terminal domain) (Homo sapiens, UniProt P56470); assay: competitive fluorescence polarization assay, galectin-4N; conditions: for Kd: N-terminal domain, average and SEM, PBS
T4 construct: 4N (N-terminal domain) 4C (C-terminal domain); made in house
T4 sequence (P56470 19-150 limits assumed): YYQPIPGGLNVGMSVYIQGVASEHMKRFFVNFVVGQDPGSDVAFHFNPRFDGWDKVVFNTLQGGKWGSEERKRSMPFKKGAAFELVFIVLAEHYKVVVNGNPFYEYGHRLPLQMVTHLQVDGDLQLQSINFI
Excerpt: (§3) Human galectin-1 [25], galectin-2 [26], galectin-3 [27], galectin-4N [19], galectin-4C [19], galectin-8N [28], galectin-8C [28], galectin-9N [29], and galectin-9C [30], were expressed and purified as described earlier. Human galectin-7 was expressed using a pET3c plasmid in E. coli BL21-star. The plasmid containing expression optimized DNA encoding the full human galectin-7 sequence (NCBI Reference Sequence: NP_002298.1) was obtained from GenScript (Piscataway, NJ, USA). Bacterial culture and induction, and galectin purification was essential as described for galectin-3 expressed with the same vector [27]; a typical yield was 1.5–2 mg/L culture. Lactose was removed by chromatography on a PD-10 column (Amersham Biosciences) with repeated ultrafiltration with Centriprep (Amicon).
as §2

[5] = molecular target: T5, human galectin-2 (Homo sapiens, UniProt P05162); assay: competitive fluorescence polarization assay, galectin-2; conditions: average and SEM, PBS
T5 construct: made in house
T5 sequence (P05162 1-132): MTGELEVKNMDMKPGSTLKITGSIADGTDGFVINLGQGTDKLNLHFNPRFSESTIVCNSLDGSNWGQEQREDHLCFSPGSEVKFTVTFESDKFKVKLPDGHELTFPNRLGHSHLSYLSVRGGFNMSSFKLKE
Excerpt: as §3, §2

[6] = molecular target: T6, human galectin-1 (Homo sapiens, UniProt P09382); assay: competitive fluorescence polarization assay, galectin-1; conditions: for Kd: average and SEM of 4–8 single-triple point measurements, PBS
T6 construct: made in house
Excerpt: as §1, §2

[7] = molecular target: T7, human galectin-8N (N-terminal domain) (Homo sapiens, UniProt O00214); assay: competitive fluorescence polarization assay, galectin-8N; conditions: PBS
T7 construct: 4N (N-terminal domain) 4C (C-terminal domain), 7, 8N, 8C, 9N, and 9C; made in house
T7 sequence (O00214 19-152 limits assumed): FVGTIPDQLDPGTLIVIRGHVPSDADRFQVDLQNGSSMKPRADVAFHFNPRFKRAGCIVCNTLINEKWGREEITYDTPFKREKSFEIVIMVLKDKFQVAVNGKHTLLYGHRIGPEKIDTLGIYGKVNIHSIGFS
Excerpt: as §1, §2

[8] = molecular target: T8, human galectin-4C (C-terminal domain) (Homo sapiens, UniProt P56470); assay: competitive fluorescence polarization assay, galectin-4C; conditions: PBS
T8 construct: 4N (N-terminal domain) 4C (C-terminal domain); made in house
T8 sequence (P56470 194-323 limits assumed): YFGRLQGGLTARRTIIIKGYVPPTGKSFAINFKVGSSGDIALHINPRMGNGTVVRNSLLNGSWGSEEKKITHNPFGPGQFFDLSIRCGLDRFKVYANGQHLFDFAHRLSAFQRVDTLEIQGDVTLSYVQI
Excerpt: as §1, §2

[9] = molecular target: T9, human galectin-7 (Homo sapiens, UniProt P47929); assay: competitive fluorescence polarization assay, galectin-7; conditions: average and SEM, PBS, room temperature, galectin-7 at 5 µM, probe 0.02 µM
T9 construct: made in house; host or cells: E. coli BL21-star, pET3c plasmid (DNA from GenScript)
Excerpt: as §3, §2

[10] = molecular target: T10, human galectin-9N (N-terminal domain) (Homo sapiens, UniProt O00182); assay: competitive fluorescence polarization assay, galectin-9N; conditions: Table 2, average and SEM, PBS
T10 construct: 4N (N-terminal domain) 4C (C-terminal domain), 7, 8N, 8C, 9N, and 9C; made in house
Excerpt: as §3, §2

T10 sequence (O00182 17-148 limits assumed): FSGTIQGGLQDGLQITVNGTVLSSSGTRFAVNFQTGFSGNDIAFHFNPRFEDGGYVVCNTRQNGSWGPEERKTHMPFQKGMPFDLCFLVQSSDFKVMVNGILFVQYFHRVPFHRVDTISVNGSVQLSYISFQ
T3 sequence (P17931 whole entry): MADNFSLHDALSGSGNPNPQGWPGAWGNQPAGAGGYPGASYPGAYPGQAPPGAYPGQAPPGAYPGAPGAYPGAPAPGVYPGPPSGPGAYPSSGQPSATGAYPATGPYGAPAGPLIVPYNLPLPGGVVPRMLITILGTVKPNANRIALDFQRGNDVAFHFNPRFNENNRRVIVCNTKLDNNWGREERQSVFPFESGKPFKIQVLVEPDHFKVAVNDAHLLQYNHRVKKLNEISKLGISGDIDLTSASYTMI
T9 sequence (P47929 whole entry): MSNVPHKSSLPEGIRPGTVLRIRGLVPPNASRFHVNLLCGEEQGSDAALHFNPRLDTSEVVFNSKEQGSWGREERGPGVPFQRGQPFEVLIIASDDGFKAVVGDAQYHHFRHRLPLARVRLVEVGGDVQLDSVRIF
T1 sequence (O00182 227-355 limits assumed): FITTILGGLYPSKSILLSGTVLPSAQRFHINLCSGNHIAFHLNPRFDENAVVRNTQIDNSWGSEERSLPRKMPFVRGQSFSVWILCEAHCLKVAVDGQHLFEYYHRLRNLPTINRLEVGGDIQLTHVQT
T6 sequence (P09382 whole entry): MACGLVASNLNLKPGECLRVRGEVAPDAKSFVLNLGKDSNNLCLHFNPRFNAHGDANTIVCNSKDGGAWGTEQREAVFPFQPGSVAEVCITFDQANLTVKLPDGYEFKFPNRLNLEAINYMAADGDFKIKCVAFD

Kd ([1]; Table 2, average and SEM) [mM] | Kd ([2]; Table 2, average and SEM) [mM] | Kd ([3]; Table 2) [mM] | Kd ([4]; Table 2) [mM] | Kd ([5]; Table 2) [mM] | Kd ([6]; Table 2) [mM] | Kd ([7]; Table 2, average and SEM) [mM] | Kd [10] [mM] | Kd ([8]; Table 2, average and SEM) [mM] | Kd ([9]; Table 2) [mM] | Structure (SMILES) | also measured
 |  |  |  |  |  |  |  |  |  | CO[C@@H]1O[C@H](CO)[C@H](O)[C@@H](CNC(=O)c2ccccc2)[C@H]1O [Compound 7a, Methyl 3-Deoxy-3-C-Benzamidomethyl-β-D-Gulopyranoside] | Kd ([1]; Table 1, average and SEM): > 4 mM; Kd ([2]; Table 1, average and SEM): > 4 mM; Kd ([3]; Table 1): > 4 mM; Kd ([4]; Table 1): > 4 mM; Kd ([5]; Table 1): > 4 mM; Kd ([6]; Table 1): 1.8 ± 0.15 mM; Kd ([7]; Table 1, average and SEM): > 4 mM; Kd ([8]; Table 1, average and SEM): > 4 mM; Kd ([9]; Table 1): > 4 mM
> 4 | 2.7 ± 0.5 | > 4 | 1.9 ± 0.05 | > 4 | 1.5 ± 0.08 | > 4 | > 4 | > 4 | > 4 | CO[C@@H]1O[C@H](CO)[C@H](O)[C@@H](CNC(C)=O)[C@H]1O [Compound 7b, Methyl 3-Deoxy-3-C-Acetamidomethyl-β-D-Gulopyranoside] | 
> 4 | > 4 | > 4 | 2.2 ± 0.16 | > 4 | 1.9 ± 0.04 | > 4 | > 4 | > 4 | > 4 | CO[C@@H]1O[C@H](CO)[C@H](O)[C@H](CNC(=O)c2ccccc2F)[C@H]1O [Compound 7c, Methyl 3-Deoxy-3-C-(2-Fluorobenzamidomethyl)-β-D-Galactopyranoside] | 
> 4 | > 4 | > 4 | > 4 | > 4 | 1.9 ± 0.4 | > 4 | > 4 | > 4 | > 4 | CO[C@@H]1O[C@H](CO)[C@H](O)[C@H](CNC(=O)c2cccc(F)c2)[C@H]1O [Compound 7d, Methyl 3-Deoxy-3-C-(3-Fluorobenzamidomethyl)-β-D-Galactopyranoside] | 
 |  |  |  |  |  |  |  |  |  | CO[C@@H]1O[C@H](CO)[C@H](O)[C@@H](CNP(=O)(Oc2ccccc2)Oc2ccccc2)[C@H]1O [Compound 8, Methyl 3-Deoxy-3-C-(Diphenylphosphonamidomethyl)-β-D-Galactopyranoside] | Kd ([1]; Table 1, average and SEM): > 5 mM; Kd ([2]; Table 1, average and SEM): > 4 mM; Kd ([3]; Table 1): > 4 mM; Kd ([4]; Table 1): > 4 mM; Kd ([6]; Table 1): > 10 mM; Kd ([7]; Table 1, average and SEM): > 4 mM; Kd ([8]; Table 1, average and SEM): > 4 mM; Kd ([9]; Table 1): > 4 mM
> 4 |  |  |  | 10 ± 1.5 |  |  | > 4 |  | > 4 | CO[C@@H]1O[C@H](CO)[C@H](O)[C@@H](O)[C@H]1O [Compound 9, Methyl β-D-Gulopyranoside] | 
> 4 | > 4 | > 4 | 1.3 ± 0.2 | > 4 | > 4 | > 4 | > 4 | > 4 |  | CO[C@@H]1O[C@H](CO)[C@H](O)[C@@H](NC(=O)c2ccccc2)[C@H]1O [Compound 10, Methyl 3-Benzamido-3-Deoxy-β-D-Gulopyranoside] | binding to galectin-4N (in words) [4]: improved binding; binding to galectin-1 (in words) ([6]; under the assay conditions): no binding

From publication PMC6696278 (International Journal of Molecular Sciences, 2019)
